# Reference: patent publication US20230002352A1, “SULFONAMIDE DERIVATIVES AS CTPS1 INHIBITORS” (Step Pharma S.A.S., priority 2019, published 2023)
# pIC50: −log10 of the molar value. Like-named read-outs stand apart in the source and are kept apart here.
# Key:
# human CTPS1 versus CTPS2 = assay: Human CTPS1 versus CTPS2 selectivity assessment by RapidFire/MS analysis; format: biochemical
# Procedure: Biological Example 2—RapidFire/MS-Based Enzyme Selectivity Assays.
# Human CTPS1 Versus CTPS2 Selectivity Assessment by RapidFire/MS Analysis.
# The enzyme inhibitory activities against each target isoform of interest may be determined for the compounds of the invention using an optimised RapidFire high-throughput mass spectrometry (RF/MS) assay format. RF/MS assays for both human CTPS1 and CTPS2 may be performed in assay buffer consisting of 50 mM HEPES (Merck), 20 mM MgCl2, 5 mM KCl, 1 mM DTT, 0.01% Tween-20, pH to 8.0 accordingly. Human full-length active C-terminal FLAG-His-tag CTPS1 (UniProtKB-P17812, CTPS[1-591]-[…]) may be obtained from Proteros biostructures GmbH. Human full length active C-terminal FLAG-His-Avi tagged CTPS2 (UniProtKB-Q9NRF8, CTPS2 [1-586]-[…]) may be obtained from Harker Bio.
# Human CTPS (1 or 2) protein may be prepared in 1× assay buffer to the final working protein concentration required for the reaction. A 2 uL volume per well of 2×CTPS (1 or 2) protein may be mixed with 40 nL of compound using acoustic (ECHO) delivery and incubated for 10 minutes at 25° C. Each isoform enzymatic reaction may be subsequently initiated by addition of 2 uL per well of a 2× substrate mix in assay buffer. For hCTPS1: ATP (0.3 mM), UTP (0.2 mM), GTP (0.07 mM) and L-glutamine (0.1 mM). For hCTPS2: ATP (0.1 mM), UTP (0.04 mM), GTP (0.03 mM) and L-glutamine (0.1 mM). Each mixture may be incubated for an appropriate amount of time per isoform within the determined linear phase of the reaction at 25° C. A 60 uL volume of stop solution (1% formic acid with 0.5 uM ^13C9-^15N3-CTP in H2O) may be added and the plate immediately heat-sealed and centrifuged for 10 minutes at 4,000 rpm. Following centrifugation, plates may be loaded onto the Agilent RapidFire microfluidic solid phase extraction system coupled to an AP14000 triple quadrupole mass spectrometer (RF/MS) for analysis.
# In all cases, the enzyme converts UTP to CTP. Highly specific and sensitive multiple reaction monitoring (MRM) MS methods may be optimised for the detection of the enzymatic reaction product, CTP, and the stable isotope labelled product standard ^13C9-^15N3-CTP. Readout for data analysis may be calculated as the ratio between the peak area of the product CTP and the internal standard ^13C9-^15N3-CTP. For data reporting, the following equation may be used: […]
# For each screening plate, the means of the negative (DMSO) and positive control values were used for the calculation of the respective assay window (S/B) and Z′ values. The median of the respective control values was used for calculation of percent inhibition according to the following equation: […]
# Percentage inhibition was then plotted against compound concentration, and the 50% inhibitory concentration (IC50) was determined from the resultant concentration-response curve.
# Fold selectivity between CTPS1 and CTPS2 was subsequently calculated according to the following equation: […]
# human CTPS1 = biological target: T1, human CTPS1 (Homo sapiens, UniProt P17812); assay: Human CTPS1 enzyme inhibition (ADP-Glo Max assay); format: biochemical; settings: ADP-Glo Max assay, read-out: CTPS1 (Human CTPS1 Enzyme Inhibition data grouped by potency range, IC50)
# T1 construct: purchased Proteros biostructures GmbH
# T1 sequence (P17812 1-591): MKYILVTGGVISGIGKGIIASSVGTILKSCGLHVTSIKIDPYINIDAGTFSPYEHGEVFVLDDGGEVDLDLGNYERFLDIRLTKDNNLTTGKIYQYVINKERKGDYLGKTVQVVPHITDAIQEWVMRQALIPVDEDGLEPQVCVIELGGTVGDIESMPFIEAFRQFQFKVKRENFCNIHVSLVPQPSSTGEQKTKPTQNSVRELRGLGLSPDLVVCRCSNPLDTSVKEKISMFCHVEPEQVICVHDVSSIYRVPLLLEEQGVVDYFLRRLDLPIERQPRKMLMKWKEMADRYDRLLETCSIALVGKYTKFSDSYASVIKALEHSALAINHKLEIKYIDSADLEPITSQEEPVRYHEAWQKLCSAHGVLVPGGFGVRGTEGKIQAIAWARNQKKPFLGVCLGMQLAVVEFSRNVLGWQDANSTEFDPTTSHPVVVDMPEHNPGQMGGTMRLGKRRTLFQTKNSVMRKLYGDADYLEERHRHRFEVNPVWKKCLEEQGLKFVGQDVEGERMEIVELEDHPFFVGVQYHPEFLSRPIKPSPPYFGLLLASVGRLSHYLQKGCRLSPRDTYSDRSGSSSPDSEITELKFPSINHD
# Method in brief: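 Full-length FLAG-His-tagged human CTPS1 and compound were preincubated 10 min at 25 °C in 50 mM Tris pH 8.0, 10 mM MgCl2, 0.01% Tween-20, 2 mM L-cysteine. Substrate mix: ATP 0.31 mM, GTP 0.034 mM, UTP 0.48 mM, glutamine 0.186 mM; linear-phase reaction at 25 °C. ADP-Glo Max luminescence; IC50 from inhibition curve.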
Compound,Selectivity (fold selectivity between CTPS1 and CTPS2) (human CTPS1 versus CTPS2; Table 26),further results
"CCOc1cncc(-c2ccc(NC(=O)C(F)(CC)c3cncc(NS(=O)(=O)C4CC4)n3)nc2)n1 (single isomer, unassigned) [Example P207]",+ (2-30 fold (+)),
CCOc1cncc(-c2ccc(NC(=O)C(C)(OC)c3cncc(NS(=O)(=O)C4CC4)n3)nc2)n1 (stereo not shown) [Example P205b],++ (>30-60 fold (++)),
CC(C)(C(=O)Nc1ccc(-c2cncc(C3CC3)n2)cc1F)c1ccnc(NS(=O)(=O)C2CC2)n1 [Example P128],+ (2-30 fold (+)),pIC50 (human CTPS1; Table 23): 6.00 to 7.00
CCOc1cncc(-c2ccc(NC(=O)C3(c4cncc(NS(=O)(=O)C5CC5)n4)CCOCC3)nc2)n1 [Example P197],+++ (>60 fold (+++)),pIC50 (human CTPS1; Table 23): ≥ 7.00
"CCOc1cncc(-c2ccc(NC(=O)C3(c4ccnc(NS(=O)(=O)C5CC5)n4)CCC(O)CC3)nc2)n1 (single isomer, unassigned) [Example P227, 1-(2-(cyclopropanesulfonamido)pyrimidin-4-yl)-N-(5-(6-ethoxypyrazin-2-yl)pyridin-2-yl)-4-hydroxycyclohexanecarboxamide]",,pIC50 (human CTPS1; Table 24): ≥ 7.00; Selectivity (fold selectivity between CTPS1 and CTPS2) (human CTPS1 versus CTPS2; Table 27): +++ (>60 fold (+++))
CCC(C(=O)Nc1ccc(-c2cncc(OCC(F)(F)F)n2)cc1)c1ccnc(NS(=O)(=O)C2CC2)n1 (stereo not shown) [Example P108],+++ (>60 fold (+++)),
CC(C)c1cncc(-c2ccc(NC(=O)C(C)(C)c3ccnc(NS(=O)(=O)C4CC4)n3)cc2)n1 [Example P132],++ (>30-60 fold (++)),pIC50 (human CTPS1; Table 23): 6.00 to 7.00
CCOc1cncc(-c2ccc(NC(=O)C(CC)c3ccnc(NS(=O)(=O)C4CC4)n3)c(F)c2)n1 (stereo not shown) [Example P96],+ (2-30 fold (+)),
CCOc1cncc(-c2ccc(NC(=O)C(CC)c3cncc(NS(=O)(=O)C4CC4)n3)nc2)n1 (stereo not shown) [Example P201],+++ (>60 fold (+++)),
CCOc1cncc(-c2ccc(NC(=O)C(CC)c3cccc(NS(=O)(=O)C4CC4)n3)nc2)n1 (stereo not shown) [Example P188],++ (>30-60 fold (++)),
CC(C)Oc1cncc(-c2ccc(NC(=O)C(C)(C)c3ccnc(NS(=O)(=O)C4CC4)n3)nc2)n1 [Example P9],+++ (>60 fold (+++)),
"CCOc1cncc(-c2ccc(NC(=O)C(F)(CC)c3ccnc(NS(=O)(=O)C4CC4)n3)nc2)n1 (single isomer, unassigned) [Example P114, 2-(2-(cyclopropanesulfonamido)pyrimidin-4-yl)-N-(5-(6-ethoxypyrazin-2-yl)pyridin-2-yl)-2-fluorobutanamide]",+++ (>60 fold (+++)),
"CCC(C(=O)Nc1ccc(-c2cncc(Cl)c2)cc1)c1ccnc(NS(=O)(=O)C2CC2)n1 (stereo not shown) [Example P1, N-(4-(5-Chloropyridin-3-yl)phenyl)-2-(2-(cyclopropanesulfonamido)pyrimidin-4-yl)butanamide]",+ (2-30 fold (+)),
CCOc1cncc(-c2ccc(NC(=O)C(C)(OC)c3cncc(NS(=O)(=O)C4CC4)n3)nc2)n1 (stereo not shown) [Example P205a],+++ (>60 fold (+++)),
CCC(C(=O)Nc1ccc(-c2cncc(OC)n2)cc1F)c1ccnc(NS(=O)(=O)C2CC2)n1 (stereo not shown) [Example P95],+ (2-30 fold (+)),
"CCOc1cncc(-c2ccc(NC(=O)C(F)(CC)c3ccnc(NS(=O)(=O)C4CC4)n3)nc2)n1 (single isomer, unassigned) [Example P113, 2-(2-(cyclopropanesulfonamido)pyrimidin-4-yl)-N-(5-(6-ethoxypyrazin-2-yl)pyridin-2-yl)-2-fluorobutanamide]",+ (2-30 fold (+)),
CCC(C(=O)Nc1ccc(-c2cncc(OC(C)C)n2)cn1)c1ccnc(NS(=O)(=O)C2CC2)n1 (stereo not shown) [Example P89],+++ (>60 fold (+++)),
"CCOc1cncc(-c2ccc(NC(=O)C(CC)c3ccnc(NS(=O)(=O)C4CC4)n3)cc2)n1 (stereo not shown) [Example P105, 2-(2-(Cyclopropanesulfonamido)pyrimidin-4-yl)-N-(4-(6-ethoxypyrazin-2-yl)phenyl)butanamide]",++ (>30-60 fold (++)),
CCOc1cncc(-c2ccc(C(=O)NC(CC)c3ccnc(NS(=O)(=O)C4CC4)n3)c(F)c2)n1 (stereo not shown) [Example P216],+++ (>60 fold (+++)),
CCOc1cncc(-c2ccc(NC(=O)C(CC)c3ccnc(NS(=O)(=O)C4CC4)n3)nc2)n1 (stereo not shown) [Example P88],+++ (>60 fold (+++)),
CCOc1cncc(-c2ccc(NC(=O)C(CC)c3cncc(NS(=O)(=O)C4CC4)n3)cc2)n1 (stereo not shown) [Example P202],+++ (>60 fold (+++)),
CCC(C(=O)Nc1ccc(-c2cncc(C(F)(F)F)n2)cc1)c1ccnc(NS(=O)(=O)C2CC2)n1 (stereo not shown) [Example P103],+ (2-30 fold (+)),
CCC(C(=O)Nc1ccc(-c2cncc(C(F)(F)F)n2)cn1)c1ccnc(NS(=O)(=O)C2CC2)n1 (stereo not shown) [Example P87],++ (>30-60 fold (++)),
CCOc1cncc(-c2ccc(NC(=O)C(CCOC)c3ccnc(NS(=O)(=O)C4CC4)n3)cc2)n1 (stereo not shown) [Example P110],++ (>30-60 fold (++)),
CCC(C(=O)Nc1ccc(-c2cncc(OCC(F)(F)F)n2)cc1F)c1ccnc(NS(=O)(=O)C2CC2)n1 (stereo not shown) [Example P98],+++ (>60 fold (+++)),
CCOc1cncc(-c2ccc(NC(=O)C(C)(CCOC)c3cncc(NS(=O)(=O)C4CC4)n3)nc2)n1 (stereo not shown) [Example P198],+++ (>60 fold (+++)),
"CCOc1cncc(-c2ccc(NC(=O)C(F)(CC)c3ccnc(NS(=O)(=O)C4CC4)n3)nc2)n1 (racemic) [Example P112, 2-(2-(Cyclopropanesulfonamido)pyrimidin-4-yl)-N-(5-(6-ethoxypyrazin-2-yl)pyridin-2-yl)-2-fluorobutanamide]",++ (>30-60 fold (++)),
"CCOc1cncc(-c2ccc(NC(=O)C(F)(CC)c3cncc(NS(=O)(=O)C4CC4)n3)nc2)n1 (single isomer, unassigned) [Example P206]",+++ (>60 fold (+++)),
CCOc1cncc(-c2ccc(NC(=O)C(F)(CC)c3cncc(NS(=O)(=O)C4CC4)n3)nc2)n1 (stereo not shown) [Example P200],++ (>30-60 fold (++)),
CCOc1cncc(-c2ccc(NC(=O)C(CC)c3cccc(NS(=O)(=O)C4CC4)n3)cc2)n1 (stereo not shown) [Example P191],++ (>30-60 fold (++)),
